The test system of one data set is rabbit ear vein. Nature of the data set: Embolic effect in rabbit ear vein. Type of data set: in vivo, rabbits. To be noted: 0.1 mL injected, after one-month recovery, India ink. How it is done:
Sixty healthy male rabbits with body weight of 2.5±0.2 kg were selected and divided into 6 groups of 10. The rabbits were anesthetized with a 3% sodium pentobarbital solution by intraperitoneal injection at 0.8 mL/kg. An anticoagulated and disinfected PE-8 catheter (0.20 mm×0.36 mm) was inserted into the distal end of the ear vein, until the end of the catheter reached the midpoint of the ear vein. The in-vitro end of the catheter was connected with a 1-mL syringe through a cannula.
0.1 mL of each of the sclerosing agents of various embodiments with different components was injected at a constant speed through the PE-8 catheter. After 30 seconds, the catheter was slowly and gently withdrawn, and a cotton pad was used for hemostasis. Both left and right ears of the animals were treated with the same procedures. The animals after sclerosing treatment were accommodate in individual cages. After a one-month recovery period, after visual inspection, a normal saline containing India ink was slowly injected at the distal end of the ear vein, so as to observe and record whether the blood vessels were completely embolized. The embolization ratio in each group was recorded (Table 2).

Data set [1] can be described thus: Viscosity test by capillary viscometer. The class given is physicochemical. The settings on record: 20° C. How it is done:
The viscosity of Examples 1, 5 and 7 and ethanol was measured by a capillary viscometer at an ambient temperature of 20° C. The capillary diameter was 0.5-0.6 mm and the viscometer constant was 0.005085 mm^2/s^2. The time difference of liquid passing through the capillary was recorded.
Viscosity=time difference×viscometer constant

The structures appear in SMILES notation.

For the molecule `CCO` [Ethanol, ethanol], the “Ratio of completely embolized vessels” value in the data set on rabbit ear vein is recorded as 60% (12/20). In data set [1] (capillary diameter 0.5-0.6 mm), this molecule came in with a Time difference of 245 s. Further, the Viscosity in data set [1] (viscometer constant 0.005085 mm^2/s^2) came to 1.25 mm^2/s.

These data come from patent US20220226369A1, “ETHANOL HARDENER AND USE THEREOF” (priority 2019, published 2022).
